Test results from US9079868B2, “Selective glycosidase inhibitors and uses thereof” (Simon Fraser University, priority 2008, dated 2015).
pKi: −log10 of the molar value.

Molecular target: O-GlcNAcase (Homo sapiens (Human), UniProt O60502)
Assay: Determination of KI values for inhibition of O-GlcNAcase activity (pNP-GlcNAc substrate, Dixon plots)
Type: biochemical
Details: PBS pH 7.4, 0.5 mM pNP-GlcNAc, 37° C., linear regression of a Dixon plot
Description: Assay for Determination of […] for Inhibition of O-GlcNAcase Activity
Experimental Procedure for Kinetic Analyses:
Enzymatic reactions are carried out in PBS buffer (pH 7.4) using pNP-GlcNAc as a substrate (0.5 mM) and monitored continuously at 37° C. at 400 nm using a Cary 3E UV-VIS spectrophotometer equipped with a Peltier temperature controller. Reactions are pre-heated in a 500 μL quartz cuvette for approximately 5 minutes followed by addition of 10 μL enzyme via syringe (final enzyme concentration 0.002 mg/mL). Reaction velocities are determined by linear regression of the linear region of the reaction progress curve between the first and third minutes. An inhibitor concentration range of ⅕ to 5 times K1 is used in each case. […] All K1 values are determined using linear regression of Dixon plots.

Chain of O-GlcNAcase (O60502 whole entry): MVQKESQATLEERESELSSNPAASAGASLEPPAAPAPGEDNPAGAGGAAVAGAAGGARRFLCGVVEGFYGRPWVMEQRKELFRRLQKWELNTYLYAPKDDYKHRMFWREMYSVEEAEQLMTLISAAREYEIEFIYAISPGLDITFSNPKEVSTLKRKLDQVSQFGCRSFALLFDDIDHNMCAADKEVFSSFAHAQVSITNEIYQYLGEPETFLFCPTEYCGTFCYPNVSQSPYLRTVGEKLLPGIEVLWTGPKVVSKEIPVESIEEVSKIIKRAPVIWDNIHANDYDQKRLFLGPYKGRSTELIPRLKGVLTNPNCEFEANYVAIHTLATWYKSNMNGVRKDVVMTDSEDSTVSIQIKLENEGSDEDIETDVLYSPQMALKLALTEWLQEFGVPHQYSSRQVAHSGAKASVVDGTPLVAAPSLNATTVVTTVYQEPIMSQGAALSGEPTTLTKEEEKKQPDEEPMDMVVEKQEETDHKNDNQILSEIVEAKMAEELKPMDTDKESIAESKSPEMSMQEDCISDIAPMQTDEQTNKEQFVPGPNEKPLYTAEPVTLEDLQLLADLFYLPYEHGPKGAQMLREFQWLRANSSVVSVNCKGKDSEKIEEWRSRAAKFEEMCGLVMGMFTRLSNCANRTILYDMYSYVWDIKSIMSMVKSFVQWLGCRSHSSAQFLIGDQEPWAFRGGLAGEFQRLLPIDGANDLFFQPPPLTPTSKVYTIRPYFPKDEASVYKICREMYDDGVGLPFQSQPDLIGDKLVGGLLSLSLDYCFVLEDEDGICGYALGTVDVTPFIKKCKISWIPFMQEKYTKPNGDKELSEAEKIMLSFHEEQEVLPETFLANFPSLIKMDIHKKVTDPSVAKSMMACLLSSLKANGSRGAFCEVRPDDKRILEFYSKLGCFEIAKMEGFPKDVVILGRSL

pKi: 4.40
Structure (SMILES): CN(C)C1=N[C@@H]2[C@@H](O)[C@H](O)[C@@H](CO)[C@@H]2O1 [Compound 2, (3aR,4R,5R,6R,6aS)-2-(dimethylamino)-6-(hydroxymethyl)-4,5,6,6a-tetrahydro-3aH-cyclopenta[d]oxazole-4,5-diol]
